According to US7144982B2, “Polypeptides with therapeutic activity and methods of use” (University of Minnesota, priority 2000, dated 2006):
Read-outs that look alike come from different tables or passages of the source.

Key:
P. aeruginosa = settings: against P. aeruginosa; Lee et al. 1989; cited from earlier work
E. coli J5 = assay: Bactericidal assay, rough strain E. coli J5; assay type: cell-based; settings: Table 1; E. coli J5; SD about ±30%
Text: (§1) Pseudomonas aeruginosa type 1 is a clinical, smooth strain isolate serotyped by using the scheme of Homma, Japan. J. Exp. Med. 46, 329–336 (1976) and maintained in the lab by monthly transfer on blood agar plates. E. coli J96, IA2, and H5 are smooth strain, uropathogenic clinical isolates kindly maintained and provided by J. R. Johnson and described in Johnson et al., J. Infect. Disease 173, 920–926 (1996) for J96 and IA2 and in Johnson et al., J. Infect. Disease 173, 746–749 (1996) for H5. J5 is an E. coli rough strain initially referenced by G. R. Siber and discussed in Warren et al., Infect. Immunity 55, 1668–1673 (1987) and is analogous to the smooth strain E. coli 0111:B4 used in the BioWhittaker LAL endotoxin detection and quantitation kit described below. Gram-positive MN8 and MNHO are two patient isolates of Staphylococcus aureus, which were kindly provided by P. M. Schlievert and described in Bohach et al., Rev. Infect. Diseases 11, 75–82 (1989) for MNHO and in Schlievert et al., J. Infect. Diseases 147, 236–242 (1983) for MN8. All cultures are maintained on nutrient agar plates.
(§2) Pyrogen-free solutions were used throughout the assay. Log phase bacteria were obtained by transferring an overnight culture or scraping crystals off −85° C. glycerol stocks of overnight cultures. Bacteria were washed and resuspended in 0.9% sodium chloride with adjustment to an optical density at 650 nm which yields 3×10^8 CFU/ml. Bacteria were then diluted 1:10 in 0.08 M citrate phosphate buffer, pH 7.0 (prepared by mixing 0.08 M citric acid with 0.08 M dibasic sodium phosphate). Bacteria (0.15 ml) were incubated with peptide in a final volume of 1.0 ml of buffer. The assay was done in 17×100 polypropylene tubes in a reciprocal water bath shaker at 37° C. for 30 minutes. Following this 30 minute (min) incubation, 10-fold dilutions were made in 0.9% sodium chloride. Dilutions were done to 10^−4 and 20 μl of each dilution was streaked across an agar plate. Gram-positive organisms were plated on nutrient agar plates containing 2% agar and Gram-negative organisms were plated on MacConkey agar (2%). Plates were incubated overnight at 37° C. and counted the next morning. The dilution containing 10–100 bacteria was counted and the number multiplied by 50 to adjust all counts to the number bacteria killed per milliliter. Peptide concentrations were converted to logarithm base ten and graphed. Bactericidal activity was determined by dose response where LD50 values were determined by best fits of a sigmoidal curve to the dose response data.

[1] = tested on: Staphylococcus aureus MN8; assay: Bactericidal assay, Gram-positive S. aureus MN8; assay type: cell-based; settings: Table 1, SD about ±30%
Text: as §1, with “Diseases 11, 75–82 (1989) for MNHO and in Schlievert et al., J. Infect. Diseases 147, 236–242 (1983) for MN8. All cultures are maintained on nutrient agar plates.” left out
(§3) Pyrogen-free solutions were used throughout the assay. […] Plates were incubated overnight at 37° C. and counted the next morning. The dilution containing 10–100 bacteria was counted and the number multiplied by 50 to adjust all counts to the number bacteria killed per milliliter. […] Bactericidal activity was determined by dose response where LD50 values were determined by best fits of a sigmoidal curve to the dose response data.

E. coli 055:B5 LPS = assay: Limulus amoebocyte lysate assay for LPS neutralization; assay type: biochemical
Text: The ability of synthetic peptides to neutralize endotoxin was detected using the chromogenic QCL-1000 kit from BioWhittaker, Inc. (Walkersville, Md.) as described in their protocol. This method is quantitative for Gram-negative bacterial endotoxin (lipopolysaccharide, LPS). In the Limulus amebocyte lysate (LAL) assay, peptides that are active inhibit the LPS-mediated activation of a proenzyme (Young et al., J. Clin. Invest. 51, 1790–1797 (1972)) whose active form would release p-nitroaniline (pNA) from a colorless synthetic substrate (Ac-Ile-Glu-Ala-Arg-pNA), producing a yellow color (pNA) whose absorption is monitored spectrophotometrically at 405–410 nm. The initial rate of enzyme activation is proportional to the concentration of endotoxin present. The concentration of peptide required to bind to LPS and therefore to inhibit the Limulus amoebocyte lysate driven by 0.04 unit (or 0.01 ng) of E. coli 055:B5 LPS (from SIGMA) was determined by dose response.

E. coli H5 = assay: Bactericidal assay, smooth strain E. coli H5; assay type: cell-based; settings: Table 1, SD about ±30%
Text: as §1, with “Diseases 11, 75–82 (1989) for MNHO and in Schlievert et al., J. Infect. Diseases 147, 236–242 (1983) for MN8. All cultures are maintained on nutrient agar plates.” left out
as §3

E. coli IA2 = assay: Bactericidal assay, smooth strain E. coli IA2; assay type: cell-based; settings: Table 1, SD about ±30%
Text: as §1, with “Diseases 11, 75–82 (1989) for MNHO and in Schlievert et al., J. Infect. Diseases 147, 236–242 (1983) for MN8. All cultures are maintained on nutrient agar plates.” left out
as §3

[2] = tested on: Pseudomonas aeruginosa type 1; assay: Bactericidal assay, P. aeruginosa (P.a.); assay type: cell-based; settings: Table 1; P. aeruginosa; SD about ±30%
Text: as §1, §2

bacteria = settings: Mayo et al. 1998; cited from earlier work
[3] = tested on: Staphylococcus aureus MNHO; assay: Bactericidal assay, Gram-positive S. aureus MNHO; assay type: cell-based; settings: Table 1; S. aureus MNHO; SD about ±30%
Text: as §1, §2

E. coli J96 = assay type: cell-based; settings: Table 1; E. coli J96; SD about ±30%
Text: as §1
as §2, with “The assay was done in 17×100 polypropylene tubes in a reciprocal water bath shaker at 37° C. for 30 minutes. Following this 30 minute (min) incubation, 10-fold dilutions were made in 0.9% sodium chloride. Dilutions were done to 10^−4 and 20 μl of each dilution was streaked across an agar plate. Gram-positive organisms were plated on nutrient agar plates containing 2% agar and Gram-negative organisms were plated on MacConkey agar (2%).” left out, “Peptide concentrations were converted to logarithm base ten and graphed.” left out

[4] = literature value; read-out: LPS binding activity (IC50); cited from earlier work

## cecropin P1
P. aeruginosa
  lethal concentration: 6 µM

## SIQKLNVSMKLFRKQAKWKIIVKLNDGRELSLD [βpep-19, reference compound]
E. coli J5
  LD50 bactericidal activity, Gram neg. rough J5: 0.01 10^−6 M
[1]
  LD50 bactericidal activity, Gram-positive MN8: 0.25 10^−6 M
E. coli 055:B5 LPS; Table 1, SD about ±30%, read-out: LPS effect, IC50 for neutralization of LPS
  IC50: 2000 nM
E. coli 055:B5 LPS; read-out: IC50 LPS neutralization
  IC50: ~2000 nM
E. coli H5
  LD50 bactericidal activity, Gram neg. smooth H5: 0.71 10^−6 M
E. coli IA2
  LD50 bactericidal activity, Gram neg. smooth IA2: 0.06 10^−6 M
[2]
  LD50 bactericidal activity, Gram neg. smooth P.a.: 0.03 10^−6 M
bacteria
  bactericidal concentration range: ~10^−8 M
[3]
  LD50 bactericidal activity, Gram-positive MNHO: 0.16 10^−6 M
E. coli J96
  LD50 bactericidal activity, Gram neg. smooth J96: 0.1 10^−6 M

B1: B/PI: 55 kD protein B/PI, bactericidal/permeability increasing protein (protein, UniProt P17213 32-487, looked up)
Bactericidal …: VNPGVVVRISQKGLDYASQQGTAALQKELKRIKIPDYSDSFKIKHLGKGHYSFYSMDIREFQLPSSQISMVPNVGLKFSISNANIKISGKWKAQKRFLKMSGNFDLSIEGMSISADLKLGSNPTSGKPTITCSSCSSHINSVHVHISKSKVGWLIQLFHKKIESALRNKMNSQVCEKVTNSVSSELQPYFQTLPVMTKIDSVAGINYGLVAPPATTAETLDVQMKGEFYSENHHNPPPFAPPVMEFPAAHDRMVYLGLSDYFFNTAGLVYQEAGVLKMTLRDDMIPKESKFRLTTKFFGTFLPEVAKKFPNMKIQIHVSASTPPHLSVQPTGLTFYPAVDVQAFAVLPNSSLASLFLIGMHTTGSMEVSAESNRLVGELKLDRLLLELKHSNIGPFPVELLQDIMNYIVPILVLPRVNEKLQKGFPLPTPARVQLYNVVLQPHQNFLLFGADVVYK
[4]
  IC50: 20 nM
